According to patent US20230274811A1, “METHODS OF MAKING PROSTATE CANCER TREATMENT DECISIONS” (Progenics Pharmaceuticals, Inc., priority 2020, published 2023):

Test system: biochemically recurrent prostate cancer
Experiment: CONDOR: 18F-DCFPyL PET/CT correct localization rate, detection rate and PPV vs composite standard of truth
Type: in vivo, men
Details: for PPV % (95% CI): patient level
Source text: 1. Correct Localization Rate (CLR), defined as percentage of subjects with a one-to-one correspondence between localization of at least one lesion identified on ^18F-DCFPyL PET/CT imaging and the composite truth standard, defined as either evaluable histopathology, informative correlative imaging, or PSA response after radiation therapy.
Men ≥18 years of age with a rising PSA after definitive PCa therapy and negative or equivocal imaging were enrolled. […] The primary endpoint of this study was the correct localization rate (CLR). CLR is defined as the percentage of patients with a one-to-one correspondence between localization of at least one lesion identified by ^18F-DCFPyL PET/CT and a composite standard of truth (SOT). SOT was determined by two central readers and included either histopathology or another standard imaging modality (i.e., fluciclovine-PET/CT, CT/MRI, bone scan) or alternatively, by a post-treatment PSA change for irradiated lesions.
Methods: Men ≥18 years—with rising PSA after definitive therapy and negative or equivocal standard of care imaging (e.g., CT/MRI, bone scintigraphy) were enrolled. A single 9 mCi (333 MBq)±20% dose of PyL was injected, followed by PET/CT 1-2 hours later. Primary endpoint was correct localization rate (CLR), defined as percentage of pts with a 1:1 correspondence between at least one lesion identified by PyL-PET/CT and the composite standard of truth: pathology, correlative imaging, or PSA response. […] The secondary endpoint, impact of PyL-PET/CT on clinical management of pts was based on the treating physician's documented clinical plans before and after PyL-PET/CT.
Men with a PSA ≥0.2 ng/mL after surgery or ≥2 ng/mL above the nadir after radiation therapy were eligible for enrollment. The primary endpoint was the correct localization rate (CLR) defined as positive predictive value with an additional requirement of anatomical lesion colocalization between ^18F-DCFPyL-PET/CT and a composite standard of truth (SOT). The SOT consisted of, in descending priority: 1) histopathology, 2) correlative imaging findings determined by two central readers, or 3) post-radiation PSA response. […] The impact of ^18F-DCFPyL-PET/CT as defined by change in management intent, and safety were evaluated as secondary endpoints.
Patients voided prior to imaging, and PET and non-contrast CT images were acquired from the mid-thigh through the skull vertex. All ^18F-DCFPyL-PET/CT scans were submitted to the central imaging core laboratory for assessment. Patients with positive ^18F-DCFPyL-PET/CT scans based on local interpretation were scheduled for post-^18F-DCFPyL-PET/CT follow-up to verify suspected lesion(s) based on a composite standard of truth (SOT). (FIG. 16)
Because of the expected absence of an amenable lesion for histologic verification in all patients, a composite SOT was employed based on assessment performed or initiated within 60 days following ^18F-DCFPyL-PET/CT. These reference standards were defined (in descending priority) as (1) evaluable histopathology results from prostatectomy, salvage pelvic lymph node dissection or biopsy; (2) imaging findings using ^18F-fluciclovine or ^11C-choline PET, or focused MRI or CT; or (3) if neither of the above was available or informative, confirmed PSA response up to 9 months post-radiation initiation (with no concomitant ADT) of all PET-positive foci. PSA response was defined as PSA decline by ≥50% from baseline that was confirmed on repeat measurement within 4 weeks, based on central laboratory results.
A central imaging core laboratory was employed to independently manage image handling, reader training, reader sessions and data collection. […] The readers had no access to any clinical information, including PSA values or other imaging available for a patient. […]

[1] = SOT Correlative imaging n=100, Reader 3
[2] = SOT Histopathology n=31, Reader 1
[3] = SOT Histopathology n=31, Reader 2
[4] = SOT Histopathology n=31, Reader 3
[5] = SOT PET-Fluciclovine n=71, Reader 1
[6] = SOT PET-Fluciclovine n=71, Reader 2
[7] = SOT PET-Fluciclovine n=71, Reader 3

O=C(O)CC[C@H](NC(=O)N[C@@H](CCCCNC(=O)c1ccc([18F])nc1)C(=O)O)C(=O)O [18F-DCFPyL, 2-(3-{1-carboxy-5-[(6-[^18F]fluoro-pyridine-3-carbonyl)-amino]-pentyl}ureido)-pentanedioic acid]
CLR (TP/TP + FP) [1]: (86.1%)
Negative PyL Scan [1]: (23.0%)
PPV (TP/TP + FP) [1]: (87.0%)
Positive PyL Scan [1]: (77.0%)
CLR (TP/TP + FP) [2]: (78.6%)
Negative PyL Scan [2]: (6.5%)
PPV (TP/TP + FP) [2]: (93.1%)
Positive PyL Scan [2]: (93.5%)
CLR (TP/TP + FP) [3]: (82.8%)
Negative PyL Scan [3]: (3.2%)
PPV (TP/TP + FP) [3]: (93.3%)
Positive PyL Scan [3]: (96.8%)
CLR (TP/TP + FP) [4]: (80.8%)
Negative PyL Scan [4]: (9.7%)
PPV (TP/TP + FP) [4]: (92.9%)
Positive PyL Scan [4]: (90.3%)
CLR (TP/TP + FP) (SOT MRI n=23, Reader 1): (80.0%)
Negative PyL Scan (SOT MRI n=23, Reader 1): (30.4%)
Positive PyL Scan (SOT MRI n=23, Reader 1): (69.6%)
CLR (TP/TP + FP) (SOT MRI n=23, Reader 2): (86.7%)
Negative PyL Scan (SOT MRI n=23, Reader 2): (30.4%)
Positive PyL Scan (SOT MRI n=23, Reader 2): (69.6%)
CLR (TP/TP + FP) (SOT MRI n=23, Reader 3): (86.7%)
Negative PyL Scan (SOT MRI n=23, Reader 3): (30.4%)
Positive PyL Scan (SOT MRI n=23, Reader 3): (69.6%)
CLR (TP/TP + FP) [5]: (90.9%)
Negative PyL Scan [5]: (14.1%)
Positive PyL Scan [5]: (85.9%)
CLR (TP/TP + FP) [6]: (90.0%)
Negative PyL Scan [6]: (23.9%)
Positive PyL Scan [6]: (76.1%)
CLR (TP/TP + FP) [7]: (86.8%)
Negative PyL Scan [7]: (19.7%)
Positive PyL Scan [7]: (80.3%)
CLR (TP/TP + FP) (SOT PSA response n=1, Reader 1): (100%)
Negative PyL Scan (SOT PSA response n=1, Reader 1): (0.0%)
PPV (TP/TP + FP) (SOT PSA response n=1, Reader 1): (100%)
Positive PyL Scan (SOT PSA response n=1, Reader 1): (100%)
CLR (TP/TP + FP) (SOT PSA response n=1, Reader 2): (100%)
Negative PyL Scan (SOT PSA response n=1, Reader 2): (0.0%)
PPV (TP/TP + FP) (SOT PSA response n=1, Reader 2): (100%)
Positive PyL Scan (SOT PSA response n=1, Reader 2): (100%)
CLR (TP/TP + FP) (SOT PSA response n=1, Reader 3): (100%)
Negative PyL Scan (SOT PSA response n=1, Reader 3): (0.0%)
PPV (TP/TP + FP) (SOT PSA response n=1, Reader 3): (100%)
Positive PyL Scan (SOT PSA response n=1, Reader 3): (100%)
CLR (TP/TP + FP) (all patients n=208, Reader 1): (85.6%)
Negative PyL Scan (all patients n=208, Reader 1): (34.1%)
Positive PyL Scan (all patients n=208, Reader 1): (65.9%)
CLR (TP/TP + FP) (all patients n=208, Reader 2): (87.0%)
Negative PyL Scan (all patients n=208, Reader 2): (40.4%)
Positive PyL Scan (all patients n=208, Reader 2): (59.6%)
CLR (TP/TP + FP) (all patients n=208, Reader 3): (84.8%)
Negative PyL Scan (all patients n=208, Reader 3): (40.9%)
Positive PyL Scan (all patients n=208, Reader 3): (59.1%)
lesion detection rate (baseline PSA <0.5 ng/mL): 36.2%
median CLR (baseline PSA <0.5 ng/mL): 73.3%
lesion detection rate (baseline PSA ≥5 ng/mL): 96.7%
median CLR (baseline PSA ≥5 ng/mL): 96.4%
PPV % (95% CI) (CONDOR Reader 4): 90%
PPV % (95% CI) (CONDOR Reader 5): 91%
PPV % (95% CI) (CONDOR Reader 6): 89%
CLR (patients with PSA 0.2 to <2.0 ng/mL): > 73%
PET/CT finding, case study 2 (person, PSA 1.27 ng/mL, confirmed by contrast-MRI): lumbar spine metastasis
PET/CT finding, case study 1 (person, PSA 1.92 ng/mL, confirmed by pathology): L common iliac and multiple retroperitoneal lymph node lesions
PET/CT finding, case study 3 (person, PSA 1.78, confirmed by biopsy): a thoracic spine lesion
